Test results reported in patent publication US12312301B2, “Organosulfur compounds” (MARIPOSA THERAPEUTICS LTD., priority 2018, dated 2025).

Key:
Format in all cases: cell-based
HaCaT cells = test: Scratch closure test; details: 5 μM, HaCaT monolayer; for scratch closure observed at 20 h: in line with EGF positive control; for scratch closure compared to vehicle control: P<0.0001 vs 1% DMSO vehicle
Experimental: HaCaT cells (aneuploidy immortal keratinocyte cell line) were seeded in a 96-well plate at a cell density of 5×10^4 cells per well and incubated overnight at 37° C., 5% CO2 and 95% humidity. Test and control compounds were prepared in 1% DMSO and diluted to a concentration of 5 μM in pre-warmed HaCaT cell media. Cells were washed with pre-warmed PBS and the monolayers mechanically injured by introducing a vertical cell-free area in each individual well, and washed again. Test and control compounds were added and all wells microscopically imaged for time point 0. Cells were incubated as described above and imaged after 20 hours. All conditions were tested with an N of 4 replicates. Scratch closure was analysed using ImageJ software and standard deviation calculated. Scratch closure area reduction was plotted using GraphPrism 8 software.

[1] = tested on: Pseudomonas aeruginosa biofilm formation; test: Minimum Biofilm Inhibition Concentration (MBIC) assay, crystal violet biofilm mass; details: for P. aeruginosa MBIC: % of Ajoene positive control IC50: IC50 relative to ajoene run in the same experiment, <100% = more effective than ajoene
Experimental: (§1) Compounds were assayed for their ability to inhibit S. aureus or P. aeruginosa biofilm formation as follows. All compounds were prepared as a 30 mM stock in DMSO and diluted in TSB to 48 μM (S. aureus) or 144 μM (P. aeruginosa). The compounds were further serially diluted two-fold from 48 μM to 0.75 μM (S. aureus) or 144 μM to 2.3 μM (P. aeruginosa) and added to a 96-well plate at 100 μl per well. Overnight cultures of bacteria were diluted to an OD600=0.07 in fresh TSB and 100 μl of the diluted bacterial culture was added to the compound containing wells. The bacteria were incubated in the presence of the compounds overnight at 37° C. After incubation, the planktonic bacteria were removed by three washes using H2O and the remaining biofilm was stained using crystal violet and quantified photometrically at A570. Absorbances corresponding to biofilm mass were plotted versus compound concentration and IC50 values were calculated. Reference: O'Toole GA. Microtiter Dish Biofilm Formation Assay. J. Vis. Exp. (2011).
(§2) MBIC assays of the compounds are carried out alongside ajoene for reference and standardization. The 1050 of ajoene against S. aureus and P. aeruginosa is well-defined and reproducible allowing ajoene to serve as an effective control for the experiment. As such, the 1050 calculated for the tested compounds are compared to the 1050 of ajoene in every experiment and are therefore represented as % of ajoene.
(§3) The compound and the other biofilm inhibitory agents were assayed for their inhibitory activity using the MBIC method as described in Example 4. Absorbances corresponding to biofilm mass were plotted versus concentration of compound and other biofilm inhibitory agents.

[2] = tested on: Staphylococcus aureus biofilm formation; test: as above; details: for S. aureus MBIC: % of Ajoene positive control IC50: IC50 relative to ajoene run in the same experiment, <100% = more effective than ajoene
Experimental: as §1, §2, §3

Structure (SMILES) | P. aeruginosa MBIC: % of Ajoene positive control IC50 [1] | S. aureus MBIC: % of Ajoene positive control IC50 [2] | also measured
COc1ccc(CSS/C=C\CS(=O)(=O)Cc2ccc(C(F)(F)F)cc2)cc1 [Test compound 3] |  |  | scratch closure observed at 20 h (HaCaT cells): complete scratch closure; scratch closure compared to vehicle control (HaCaT cells): enhanced scratch closure
C=CCSSC=CCS(=O)(=O)Cc1ccc(F)cc1 | 49.2 % of Ajoene | 7 % of Ajoene | 
COc1ccc(CSSC=CCS(=O)(=O)Cc2ccccc2)cc1 | 56 % of Ajoene | 75 % of Ajoene | 
COc1cccc(CSSC=CCS(=O)(=O)Cc2ccc(C(F)(F)F)cc2)c1 | 65.3 % of Ajoene | 20 % of Ajoene | 
C=CCSSC=CCS(=O)(=O)Cc1ccco1 | 11.7 % of Ajoene | 21.9 % of Ajoene | 
O=S(=O)(CC=CSSCc1ccc(C(F)(F)F)cc1)Cc1ccc(C(F)(F)F)cc1 [test compound 1, 1-(trifluoromethyl)-4-{[(3-{[4-(trifluoromethyl)phenyl]methanesulfonyl}prop-1-en-1-yl)disulfanyl]methyl}benzene] |  |  | IC50 against Pseudomonas aeruginosa biofilm compared to ajoene ([1]; Example 4, FIG. 2, 144 μM to 2.3 μM, overnight 37° C.): lower 1050 than ajoene; IC50 against Staphylococcus aureus biofilm compared to ajoene ([2]; Example 4, FIG. 1, 48 μM to 0.75 μM, overnight 37° C.): lower 1050 than ajoene
O=S(=O)(CC=CSSCc1ccc(C(F)(F)F)cc1)Cc1ccc(C(F)(F)F)cc1 [drawing 50] | 45.3 % of Ajoene | 28.6 % of Ajoene | 
COC(=O)c1ccc(CSS/C=C/CS(=O)(=O)Cc2ccc(C(F)(F)F)cc2)cc1 | 34.7 % of Ajoene | 20.5 % of Ajoene | 
COc1ccc(CSS/C=C/CS(=O)(=O)Cc2ccc(C(F)(F)F)cc2)cc1 | 27.8 % of Ajoene | 8.2 % of Ajoene | 
C=CCSSC=CCS(=O)(=O)Cc1ccc(OC)cc1 | 87 % of Ajoene | 4 % of Ajoene | 
COc1ccccc1CSSC=CCS(=O)(=O)Cc1ccc(C(F)(F)F)cc1 | 13.9 % of Ajoene | 51 % of Ajoene | 
C=CCSS/C=C/C[S+]([O-])CC=C (stereo not shown) [E-ajoene] |  |  | scratch closure observed at 20 h (HaCaT cells): complete scratch closure; scratch closure compared to vehicle control (HaCaT cells): enhanced scratch closure
C=CCSSC=CCS(=O)(=O)Cc1cccs1 | 29.7 % of Ajoene | 52 % of Ajoene | 
COc1ccc(CSSC=CCS(=O)(=O)Cc2ccc(C(F)(F)F)cc2)cc1 | 79 % of Ajoene | 24 % of Ajoene | 
C=CCSS/C=C/CS(=O)(=O)Cc1ccc(C(F)(F)F)cc1 | 78.7 % of Ajoene | 55.5 % of Ajoene | 
O=S(=O)(CC=CSSCC1CC1)CC1CC1 | 57.5 % of Ajoene | 69.18 % of Ajoene | 
C[S+]([O-])CCCCN=C=S (stereo not shown) [sulforaphane] |  |  | scratch closure observed at 20 h (HaCaT cells): complete scratch closure; scratch closure compared to vehicle control (HaCaT cells): enhanced scratch closure
C=CCSSC=CCS(=O)(=O)Cc1ccc(S(C)(=O)=O)cc1 | 82 % of Ajoene | 23 % of Ajoene | 
C=CCSSC=CCS(=O)(=O)Cc1ccc(C(F)(F)F)cc1 [test compound 2, 1-{[-3-(prop-2-en-1-yldisulfanyl)prop-2-ene-1-sulfonyl]methyl}-4-(trifluoromethyl)benzene] |  |  | inhibitory activity on P. aeruginosa biofilm compared to ajoene, cysteamine, gallium nitrate, HDMF, and C-30 ([1]; Example 6, FIG. 3): improved inhibitory activity; inhibitory activity on S. aureus biofilm compared to ajoene, cysteamine, gallium nitrate, HDMF, and C-30 ([2]; Example 6, FIG. 4): improved inhibitory activity
C=CCSSC=CCS(=O)(=O)Cc1ccc(C(F)(F)F)cc1 [drawing 51] | 42.75 % of Ajoene | 38.6 % of Ajoene | 
